These results are taken from patent publication US20020031483A1, “HAIR TREATMENT COMPOSITION COMPRISING A SUGAR OR CARBOHYDRATE FOR THE PURPOSES OF PARTICIPATING IN OXYGEN CONSUMPTION OF A HAIR METHOD AND USE” (priority 1998, published 2002).

Each structure is given as a SMILES string. Entries after “also recorded” stand apart in the source; their conditions may differ. Counter-ions that a name gives are not always drawn.

For assay [1], the system named is human hair follicles. The assay can be described thus: Evolution of radiolabelled CO2 from radiolabelled substrate by cultured hair follicles. The settings on record: five follicles per tube, 37° C. It is filed as cell-based. As to the method: Hair follicles were isolated from human scalp skin obtained from four different female subjects; hair follicles were isolated from human scalp skin and placed into a 6 well culture plate at a density of 15 follicles/well in 5 mL complete Williams E medium containing penicillin (50 μg/mL), streptomycin (50 IU/mL), L-glutamine (2 mM), hydrocortisone (10 ng/mL) and insulin (10 μg/mL). In addition a cocktail of amino acids consisting of arginine (0.45 mM) proline (1 mM), glycine (2.6 mM) and alanine (1 mM) was also added since these are though to improve the maintenance of hair follicles in vitro. After an overnight incubation (37° C., 5% CO2 in air) to ensure continued growth following the isolation procedure, follicles were cut to a uniform length and incubated until required.
For each experimental time point, five follicles were transferred to each of 3 eppendorf tubes in triplicate with 10 μL medium. […] After the seals had been removed the medium was sampled for counting the remaining radioactivity (3×10 μL). The KOH solution was analysed by liquid scintillation counting (Beckman LS 60001C) after addition of 18 mL Hionic Fluor (Packard).
Results from the mean of each triplicate control were subtracted from the corresponding mean from the experimental results. These combined results were then analysed by regression. […]

The subject of assay [2] is human hair follicles. The assay can be described thus: tissue or blood. It is filed as cell-based. The settings on record: read-out: inhibition of oxygen consumption by the follicles.
Method: Follicles were isolated from human facelift skin and grown in culture according to the methods described (Philpott et al J.Cell.Sci.97: pp 463-470 1990). For the oxygen consumption experiments a Clarke electrode apparatus (Tank Brothers Limited, Cambridge, England) was used.
The equipment was set up in accordance with the manufacturers instructions, the temperature of the cell being maintained at 37° C. using a circulating water bath. The output of the electrode was recorded using Perkin Elmer Turbochrom 4 data logging software.
The apparatus contains a Teflon membrane in the cell which was changed daily and the cell calibrated and prepared for use as follows. […] After recording this new ‘zero oxygen’ baseline the medium was reoxygenated by bubbling air through and the new baseline recorded. […]
After calibration, a fresh 2 ml sample of William's E medium gassed with 5% carbon dioxide in air was added, the plunger inserted into the cell ensuring that no air bubble was trapped, and the output from the cell recorded to give a rate for oxygen consumption of the cell. […] The new rate of oxygen consumption was recorded for a sufficient time as to enable its accurate determination. […]
From the calibration of the electrode, a curve was derived from which a baseline reading corresponding to zero oxygen level could be derived. […]

Regarding `O=C(O)CC(O)(CC(=O)O)C(=O)O` [citrate, [1,5-^14C]-sodium citrate], in assay [1] ([1,5-14C]-sodium citrate, about 3 μCi in 100 μL medium, up to 12 h), the “average production of CO2 evolved from metabolism of citrate” value is 0.23 (±0.04) μmol CO2. In addition, the “uptake and metabolism by hair follicles (radiolabelled CO2 evolution), result in words” value in assay [1] (radiolabelled substrate in medium) is “linear increase in the amount of CO2 evolved; also recorded: taken up into hair follicles and used as an energy source”.

As a reminder, the inhibition is how much of the control response was suppressed. Turning to `[N-]=[N+]=[N-]` [sodium azide], in assay [2], the inhibition at 2000 µM was in the range of 54 to 87%.

For the compound `C[C@]12CC[C@H]3[C@@H](CC[C@]4(O)C[C@@H](O)CC[C@]34C=O)[C@@]1(O)CC[C@@H]2C1=CC(=O)OC1` [strophanthidin, Strophanthidin], the inhibition at 100 µM in assay [2] (0.1 mM strophanthidin, 160 follicles in 2 ml medium, 37° C.) was 76%.
